Laboratory results published in patent publication US8178506B2, “Oligomeric compounds and compositions for use in modulation of small non-coding RNAs” (Regulus Therapeutics Inc., priority 2003, dated 2012).
In the oligonucleotide strings, read from the 5' end, every base follows the letter of its sugar. An asterisk marks phosphorothioate; unmarked linkages are phosphodiester. Other units and linkages are bracketed, terminal groups are in braces. A string of capitals states the bases alone. e = 2'-O-(2-methoxyethyl) (MOE); [5mC] = 5-methylcytosine; d = 2'-deoxy (DNA)

Key:
PEPCK-c = PEPCK-c mRNA expression in HepG2 cells; type: cell-based, human; settings: for PEPCKc mRNA expression: Experiment 2, insulin treated: HepG2 cells transfected with oligomeric compound, 1 nM insulin for four hours, UTC + 1 nM insulin = 100; for PEPCKc mRNA: Experiment 1, basal (no insulin), four hours, UTC = 100
Procedure: (§1) Approximately 28 hours after transfection, the cells are subjected to serum starvation for a period of 12 to 16 hours, using serum-free growth medium. Following serum starvation, cells are treated with 1 nM insulin (insulin-treated) or are left untreated (basal conditions) for approximately four hours. At the same time, untreated control cells in both plates are treated with 100 nM insulin to determine the maximal insulin response. Following insulin treatment (forty-eight hours after transfection), total RNA is harvested from all samples, and the amount of total RNA from each sample is determined using a Ribogreen assay (Invitrogen Corporation, Carlsbad, Calif.). Real-time PCR is performed on the total RNA samples using primer/probe sets for three insulin responsive genes: insulin-like growth factor binding protein-1 (IGFBP-1), cytosolic PEPCK (PEPCK-C), and follistatin. Gene expression levels obtained by real-time PCR are normalized for total RNA content in the samples.
(§2) Oligomeric compounds of the present invention were tested for their effects on insulin signaling in HepG2 cells. HepG2 cells were plated at 7500 cells/well in collagen coated 96-well plates. The following day, cells were transfected with oligomeric compounds targeting miRNAs using 100 nM oligomeric compound in LIPOFECTIN™ (Invitrogen Corporation, Carlsbad, Calif.) in two 96-well plates. The oligomeric compounds were tested in triplicate on each 96-well plate, except for positive and negative controls, which were measured up to six times per plate. At the end of transfection, the transfection medium was replaced by regular growth medium. Twenty-eight hours post-transfection, the cells were subjected to overnight (sixteen to eighteen hours) serum starvation using serum free growth medium. Forty-four hours post-transfection, the cells in the transfected wells were treated with either no insulin (“basal” Experiment 1, for identification of insulin-mimetic compounds) or with 1 nM insulin (“insulin treated” Experiment 2, for identification of insulin sensitizers) for four hours. At the same time, in both plates, cells in some of the un-transfected control wells are treated with 100 nM insulin to determine maximal insulin response. At the end of the insulin or no-insulin treatment (forty-eight hours post-transfection), total RNA is isolated from both the basal and insulin treated (1 nM) 96-well plates, and the amount of total RNA from each sample is determined using a Ribogreen assay (Molecular Probes, Eugene, Oreg.). Real-time PCR is performed on all the total RNA samples using primer/probe sets for three insulin responsive genes: PEPCK-c, IGFBP-1 and follistatin. Expression levels for each gene are normalized to total RNA, and values+standard deviation are expressed relative to the transfectant only untreated control (UTC) and negative control compounds.
(§3) Protocols for treatment of HepG2 cells and transfection of oligomeric compounds are as described in Example 18. Also as described in Example 18, forty-four hours post-transfection, the cells in the transfected wells were treated with either no insulin (“basal” Experiment 3 (below), for identification of insulin-mimetic compounds) or with 1 nM insulin (“insulin treated” Experiment 4 (below), for identification of insulin sensitizers) for four hours. At the same time, in both plates, cells in some of the un-transfected control wells are treated with 100 nM insulin to determine maximal insulin response. At the end of the insulin or no-insulin treatment (forty-eight hours post-transfection), total RNA is isolated from both the basal and insulin treated (1 nM) 96-well plates, and the amount of total RNA from each sample is determined using a Ribogreen assay (Molecular Probes, Eugene, Oreg.).

IGFBP-1 = IGFBP-1 mRNA expression in HepG2 cells; type: cell-based, human; settings: for IGFBP1 mRNA expression: Experiment 2, insulin treated: HepG2 cells transfected with oligomeric compound, 1 nM insulin for four hours, UTC + 1 nM insulin = 100; for IGFBP1 mRNA: Experiment 1, basal (no insulin), four hours, UTC = 100
Procedure: as §1, §2, §3

follistatin = assay: Follistatin mRNA expression in HepG2 cells; type: cell-based, human; settings: for Follistatin mRNA expression: Experiment 2, insulin treated: HepG2 cells transfected with oligomeric compound, 1 nM insulin for four hours, UTC + 1 nM insulin = 100; for Follistatin mRNA: Experiment 1, basal (no insulin), four hours, UTC = 100
Procedure: as §1, §2, §3

adipocytes = assay: Triglyceride accumulation assay in adipocytes; type: cell-based, human; settings: differentiating adipocytes transfected with oligomeric compound; Table 75
aP2 = aP2 mRNA expression in adipocytes (real-time PCR); type: cell-based, human; settings: differentiating adipocytes transfected with oligomeric compound; Table 75
HSL = HSL mRNA expression in adipocytes (real-time PCR); type: cell-based, human; settings: differentiating adipocytes transfected with oligomeric compound; Table 75
Glut4 = Glut4 mRNA expression in adipocytes (real-time PCR); type: cell-based, human; settings: differentiating adipocytes transfected with oligomeric compound; Table 75
PPARγ = PPARγ mRNA expression in adipocytes (real-time PCR); type: cell-based, human; settings: differentiating adipocytes transfected with oligomeric compound; Table 75
[1] = system: BJ, B16-F10, T47D, T47Dp53 and HeLa cells; assay: Cell cycle assay (propidium iodide flow cytometry), cell line panel; type: cell-based; settings: 150 nM oligomeric compound, 4.5 μg/ml LIPOFECTIN, after 72 hours, propidium iodide flow cytometry
[2] = Experiment 3, basal (no insulin), HepG2 cells, 48 hours post-transfection
[3] = Experiment 4, insulin-sensitization: HepG2 cells treated with 1 nM insulin for four hours, 48 h post-transfection, mRNA by real-time PCR

| Substance | PEPCK-c (% UTC) (PEPCK-c; [2]) | PEPCK-c (% UTC) (PEPCK-c; [3]) | IGFBP-1 (% UTC) (IGFBP-1; [2]) | IGFBP-1 (% UTC) (IGFBP-1; [3]) | Follistatin (% UTC) (follistatin; [2]) | Follistatin (% UTC) (follistatin; [3]) | PEPCKc mRNA expression (PEPCK-c) | IGFBP1 mRNA expression (IGFBP-1) | Follistatin mRNA expression (follistatin) | also measured |
| --- | --- | --- | --- | --- | --- | --- | --- | --- | --- | --- |
| 340362 (antisense GACTGTTGAATCTCATGGCA; 5-10-5 gapmer, wing sugar and linkages not given here, further chemistry not given here) [compound 340362] | 168 | 104 | 157 | 129 | 123 | 119 | – | – | – | – |
| 328358 (eA*eG*eT*eT*eT*dG*dA*dA*dG*dT*dG*dT*d[5mC]*dA*d[5mC]*eA*eG*e[5mC]*eG*e[5mC]) [compound 328358] | – | – | – | – | – | – | 93 | 165 | 106 | – |
| 328765 (antisense eG*eA*e[5mC]*eA*eA*dA*d[5mC]*dT*d[5mC]*dA*dG*d[5mC]*dT*dA*dT*eA*eT*eT*eG*eT) [compound 328765] | 93 | 73 | 88 | 94 | 87 | 97 | – | – | – | – |
| 328776 (antisense eT*e[5mC]*e[5mC]*eT*eG*dT*dA*dA*dT*dT*dA*dT*dA*dG*dG*e[5mC]*eT*eA*eG*e[5mC]) [compound 328776] | – | – | – | – | – | – | 125 | 86 | 114 | – |
| 186515 (antisense eA*eG*eG*eT*eA*dG*d[5mC]*dT*dT*dT*dG*dA*dT*dT*dA*eT*eG*eT*eA*eA) [compound 186515] | 70 | 40 | 193 | 105 | 67 | 39 | – | – | – | – |
| 328343 (eT*e[5mC]*eG*eA*eT*dT*dT*dA*dG*dT*dT*dA*dT*d[5mC]*dT*eA*eA*eA*eA*eA) [compound 328343] | – | – | – | – | – | – | 69 | 135 | 139 | – |
| 328761 (antisense eG*e[5mC]*eA*eG*eG*d[5mC]*dT*dA*dA*dA*dA*dG*dA*dA*dA*eT*eA*eA*eG*e[5mC]) [compound 328761] | 48 | 55 | 118 | 93 | 91 | 98 | 64 | 193 | 53 | – |
| 328769 (antisense eA*eG*eG*e[5mC]*eT*dG*dG*dA*d[5mC]*dA*dG*d[5mC]*dA*d[5mC]*dA*e[5mC]*eA*eA*e[5mC]*e[5mC]) [compound 328769] | – | – | – | – | – | – | 100 | 110 | 84 | – |
| 341801 (antisense CCUAUCUCCCCUCUGGACC; all 2'-MOE, all phosphorothioate, methylation of C and T or U not given here) [compound 341801] | – | – | – | – | – | – | – | – | – | TG (triglyceride accumulation) (adipocytes): 65 percentage of untreated control (UTC); aP2 mRNA (aP2): 90 percentage of untreated control (UTC); HSL mRNA (HSL): 89 percentage of untreated control (UTC); GLUT4 mRNA (Glut4): 77 percentage of untreated control (UTC); PPAR gamma mRNA (PPARγ): 82 percentage of untreated control (UTC); PEPCKc mRNA (PEPCK-c; HepG2 cells): 73; IGFBP1 mRNA (IGFBP-1; HepG2 cells): 99; Follistatin mRNA (follistatin; HepG2 cells): 85 |
| 328764 (antisense eA*eG*eA*eT*eG*dT*dT*dT*d[5mC]*dT*dG*dG*d[5mC]*d[5mC]*dT*eG*e[5mC]*eG*eA*eG) [compound 328764] | – | – | – | – | – | – | 68 | 145 | 128 | – |
| 328773 (antisense eT*eA*e[5mC]*eT*eT*dT*dA*d[5mC]*dT*d[5mC]*d[5mC]*dA*dA*dG*dG*eT*eT*eT*eT*eA) [compound 328773] | 138 | 93 | 148 | 136 | 131 | 148 | – | – | – | G1 (percentage of cells in phase of the cell cycle) [1]: 56.4%; G2/M (percentage of cells in phase of the cell cycle) [1]: 16.7%; S (percentage of cells in phase of the cell cycle) [1]: 26.9%; SubG1 (percentage of cells in phase of the cell cycle) [1]: 2.7%; aneuploid (percentage of cells) [1]: 11.7% |
| 328367 (eA*e[5mC]*eT*eG*eA*dG*dG*dG*d[5mC]*dG*dG*d[5mC]*d[5mC]*d[5mC]*dG*eG*eG*e[5mC]*eA*eG) [compound 328367] | – | – | – | – | – | – | 85 | 141 | 107 | – |
| 328779 (antisense eT*eG*eT*eT*eT*dG*dT*d[5mC]*dT*d[5mC]*d[5mC]*dA*dA*dG*dA*eA*eA*e[5mC]*eG*eT) [compound 328779] | 123 | 78 | 135 | 128 | 109 | 119 | – | – | – | – |
| 341802 (antisense AGCUGCUUUUGGGAUUCCGUUG; all 2'-MOE, all phosphorothioate, methylation of C and T or U not given here) [compound 341802] | – | – | – | – | – | – | – | – | – | TG (triglyceride accumulation) (adipocytes): 155 percentage of untreated control (UTC); aP2 mRNA (aP2): 98 percentage of untreated control (UTC); HSL mRNA (HSL): 121 percentage of untreated control (UTC); GLUT4 mRNA (Glut4): 85 percentage of untreated control (UTC); PPAR gamma mRNA (PPARγ): 127 percentage of untreated control (UTC); PEPCKc mRNA (PEPCK-c; HepG2 cells): 98; IGFBP1 mRNA (IGFBP-1; HepG2 cells): 186; Follistatin mRNA (follistatin; HepG2 cells): 136 |
| 341808 (antisense GAACUGCCUUUCUCUCCA; all 2'-MOE, all phosphorothioate, methylation of C and T or U not given here) [compound 341808] | – | – | – | – | – | – | – | – | – | PEPCKc mRNA (PEPCK-c; HepG2 cells): 64; IGFBP1 mRNA (IGFBP-1; HepG2 cells): 113; Follistatin mRNA (follistatin; HepG2 cells): 96 |
